“Also recorded” adds a separate entry of the source.
Columns and labels:
[1] = system: pools of cancer cell lines; assay: Relative cell line abundance estimated from pooled scRNA-seq; format: cell-based, human; conditions: particularly 24 hours post-treatment
From the text: Estimates of the effects of perturbations on relative cell line abundance were obtained by counting the number of (QC-passing) single cells from each cell line in each treatment condition, adding a ‘pseudo-count’ of 1, and normalizing counts across cell lines per condition. These relative abundance estimates were averaged across samples for each treatment condition to compute the log2-fold-change difference between drug-treated and control relative cell line abundances.
For selective compounds, cell cycle effects were also well-correlated with measured viability effects, such that drugs typically had larger effects in more sensitive cell lines (FIG. 18).

[2] = system: pools of well-characterized cancer cell lines; assay: MIX-Seq: scRNA-seq transcriptional response profiling of drug-treated cell line pools; format: cell-based, human
Protocol: Cell line pools were made in sets of 25 cell lines. These 25 cell line pools were chosen based on doubling time and were grown in RPMI in the absence of phenol red and with 10% FBS. Cell lines were then washed with 10 mLs of PBS, and trypsinized with 1 mL trypsin which was then removed. Ten mLs of RPMI media were added to the cells post trypsinization and resuspended. Cells were then counted by a Nexcelom cellometer using 10 uL of cell suspension and 10 ul of Trypan blue. Equal numbers of cells per cell line were mixed together and spun down at 1,250 RPM for 5 minutes. Media was aspirated and the cells were resuspended in Sigma Cell Freezing media and frozen in 1 mL aliquots. This process was repeated for all of the 25 cell line pools. For MIX-Seq experiments involving larger pools, multiple 25 cell line pools were thawed in RPMI with 10% FBS, spun down and resuspended in 5 mLs of RPMI media. Cells were then counted and equal numbers were combined together on the day of plating to form larger pools of up to ˜100 cell lines.
For drug treatment experiments, cell line pools were cultured in RPMI containing 10% fetal bovine serum, in the absence of phenol red and penicillin/streptomycin. Cell line pools were validated as Mycoplasma free prior to initiating the experiment. Cell line pools were plated at 200,000 cells per well in 6 well plates containing 2 mL of RPMI culture media described above. […] Cell pools were plated ˜16-20 hours prior to drug treatment. Cells were treated with the described drugs or vehicle (DMSO) with a 0.2% final media DMSO concentration.
Generally cells were harvested after drug treatment using standard cell culture methods. Briefly, after drug treatment cells that were in suspension (presumably containing dead cells from drug treatment) were collected and reserved for addition to the adherent cell fraction. Adherent cells were washed once with 1×PBS, trypsinized in 1 mL trypsin, incubated for 3-7 minutes at 37 C, and then trypsin inactivated with 1 mL growth media. For Cell Hashing, cells were treated with TrypLE Express (ThermoFisher) instead of trypsin to reduce the amount of cell surface proteins digested that may affect the binding of Cell Hashing antibodies.
After trypsinization, adherent and suspension cells were combined for each treatment, pelleted, and resuspended in Cell Capture Buffer (lx PBS with 0.04% BSA). Cells were counted (including trypan blue non-viable cells) and resuspended at a concentration of 1,000 cells per microliter for standard loading on the Chromium Controller (10× Genomics), or at 1,500 cells per microliter for “super loaded” samples. Up to 40,000 cells were loaded per 10× channel for “super loaded” samples, with expected recovery of up to 20,000 cells per channel. Cell suspensions were captured on a 10× Chromium controller using Single Cell 3′ reagent chemistries (either version 2 or and version 3 reagents) FIG. 26.
Sequencing data were processed using 10× Cell Ranger software, run using the Cumulus cloud-based analysis framework (Li et al. 2019). Initial experiments were done with 10× Single Cell 3′ v2 chemistry, and were processed using version 2 of the Cell Ranger software. In later experiments v3 chemistry and the corresponding version 3 of Cell Ranger were used. Reads were aligned to the hg19 reference genome.
To estimate the average transcriptional response of each cell line to a perturbation, the data were first ‘sum-collapsed’—summing read counts across cells for each cell line and treatment condition—to produce a bulk RNA-seq style read counts profile for each sample (Crowell et al. 2019; Lun & Marioni 2017). […]

cancer cell lines = conditions: GDSC and PRISM drug sensitivity data; cited from earlier work
pool of 24 cell lines = assay: Trametinib time course: MIX-Seq combined with Cell Hashing; format: cell-based, human
Protocol: For the trametinib time course experiment, cells were treated with trametinib with a staggered dosing schedule so all timepoints could be collected simultaneously. Cells were plated 19 hours prior to the first drug treatment, corresponding to the 48 hour time point. Cells were harvested for 10× capture ˜67 hours after initial seeding.
Cell Hashing (Stoeckius et al., 2018) was performed using the cell harvest method described above with the following changes. All steps were performed on ice. Harvested cells were resuspended in Cell Hashing Staining Buffer (lx PBS with 2% BSA and 0.02% Tween) prior to cell counting. Samples were counted in duplicate with two technical replicates by Countess (Life Technologies) to estimate total cell number. Up to 1,000,000 cells (range 3e5-1e6 cells) were resuspended in 100 microliters of Cell Hashing Staining Buffer. Cells were blocked with 10 microliters of Human TruStain FcX blocking solution (BioLegend) for 10 minutes at 4° C. 100 microliter cell suspensions in Cell Hashing Staining Buffer were then incubated with 2 μL of the appropriate BioLegend TotalSeq™-A Hashing antibody A Hashing antibody (a 1:50 dilution, using a total of 1 μg of antibody per cell suspension). TotalSeq™-A anti-human Hashtag antibodies #4-10 and 12-15 (product codes: 394607, 394609, 394611, 394613, 394615, 394617, 394619, 394623, 394625, 394627, 394629) were used. Cells were washed three times with 0.5 mL of Cell Hashing Staining Buffer and filtered through low volume 40 μm cell strainers (Flowmi). All cell suspensions were recounted to achieve a uniform concentration of 1,500 cells per microliter before pooling for 10× capture. A detailed general protocol is available (www.protocols.io/private/4AC0F6594480B498D8B60EAF6F518E66).
Classification of single-cell treatment conditions, as well as doublet classification, from the hashtag read counts data were performed using DemuxEM (Gaublomme et al. 2019), with default parameters.
The same approach described above was used to estimate the viability-related and viability-independent components of the response at each time point post-trametinib treatment. As substantial transcriptional changes across time points after DMSO-treatment were not observed […], data across DMSO conditions was pooled for analysis.
Leveraging this, responses of a pool of 24 cell lines to trametinib were measured along five time points, ranging from 3 to 48 hours post-treatment, using Cell Hashing to multiplex treatment conditions (FIG. 5A). As controls, DMSO-treated samples were included at each of the 5 time points, in addition to untreated samples, for a total of 11 conditions. Hashtag reads provided robust labeling of treatment conditions, with good tagging efficiency across all cell lines (FIGS. 21A and 21B). Since substantial differences in DMSO-treated cells were not observed across time points (FIG. 22), they were pooled together for subsequent analysis, yielding a total of 13,713 clearly-tagged single cells across all treatment conditions and cell lines.

[3] = system: pools of cancer cell lines; assay: Single-cell heterogeneity analysis of drug responses (clustering of scRNA-seq profiles); format: cell-based, human; conditions: lung cell line IALM, 24 hours post-treatment
From the text: Specifically, the edgeR quasi-likelihood approach was used (Lun et al. 2016), following the pipeline in Soneson et al. 2018, with the cell detection rate (the fraction of genes with non-zero reads detected) included as a covariate.
To identify subpopulations of bortezomib treated cells (FIGS. 4D-4F), Seurat's default methods were used to normalize the data, detect variable genes, and compute PCs (using 5000 most variable genes, and 50 PCs). Seurat's default clustering methods were then used to cluster cells for each cell line (using the 20 nearest neighbors, and a clustering resolution parameter of 0.25).
To identify sub-populations of cells from a given cell line in a consistent fashion across baseline and treatment conditions (for analysis and presentation in FIG. 19), the following procedure was employed. After restricting to cells from the target cell line, the scTransform method (Hafemeiester et al. 2019) was used to normalize the data, identify 5,000 variable genes, and regress out experimental condition as a covariate to align clusters across conditions. Seurat's default clustering methods (using the top 10 PCs, 20 nearest neighbors, and a clustering resolution parameter of 0.25) were then used to identify clusters jointly across treated and control cells.

[4] = integrating across all cell lines
[5] = 99 cell-line pool, 24 hours post-treatment

SMILES	drug-induced change in relative cell abundance versus measured drug sensitivity [1]	robust transcriptional response signature ([2]; 6 and/or 24 hours post-treatment)	long-term viability response across cell lines (cancer cell lines)	EGR1 expression (pool of 24 cell lines; 3 hours after treatment, sensitive cell line RCM1 and insensitive line TEN)	time at which viability-independent down-regulation of the KRAS signaling pathway emerged (pool of 24 cell lines; [4]) [hours after treatment]	time at which viability-related down-regulation of cell cycle genes started (pool of 24 cell lines; [4]) [hours after treatment]	time of maximal down-regulation of viability-independent genes such as EGR1 and DUSP6 (pool of 24 cell lines; [4]) [hours post-treatment]	MCMI expression (pool of 24 cell lines; sensitive line RCM1 vs insensitive line TEN, time course 3 to 48 hours)	time of selective down-regulation of GINS2, E2F1 and MCM4 in sensitive cell lines (pool of 24 cell lines; viability-related response)	viability-independent response component (β0) [2, 5]	viability-related response component (β1) [2, 5]	difference in response between two baseline subpopulations [3]
Cc1c2c(nn1C)CSCc1cc(n(C)n1)CSc1cc(c3ccccc3c1)OCCCc1c(C(=O)O)n(C)c3c-2c(Cl)ccc13 [AZD5591]	this relationship was observed most strongly	did not produce strong and/or selective transcriptional responses; also recorded: did not produce robust transcriptional response signatures; also recorded: a robust transcriptional response to the drug was not observed	strong selective viability responses									
CC(=O)Nc1cccc(-n2c(=O)n(C3CC3)c(=O)c3c(Nc4ccc(I)cc4F)n(C)c(=O)c(C)c32)c1 [trametinib]				dramatically down-regulated	3	24	3	selectively down-regulated only in the sensitive line RCM1, and only after 12-24 hours post-treatment	12-24 hours post-treatment	strong down-regulation of MAPK signaling genes, including EGR1, ETV4/5, DUSP4/5/6, and SPRY2/4, KRAS signaling pathways, and TNF-alpha signaling, as well as up-regulation of the interferon response	strong down-regulation of cell-cycle processes	subtle but significant differences

Source: US20220340976A1, “RAPID PREDICTION OF DRUG RESPONSIVENESS” (THE BROAD INSTITUTE, INC., priority 2019, published 2022)
